Test results taken from EPA's ToxRefDB 2.

Experiments:
rat [1] = conditions: Prenatal developmental toxicity study; sprague dawley; Oral; Gavage/Intubation; dose end: 17 GD; group: maternal; systemic / in life observation / body weight / body weight gain
rat [2] = conditions: Carcinogenicity; fischer; Oral; Feed; dose end: 78 week; group: systemic; systemic / in life observation / body weight / body weight
mouse [3] = conditions: Carcinogenicity; b6c3f1; Oral; Feed; dose end: 78 week; group: systemic; systemic / in life observation / body weight / body weight
mouse [4] = conditions: Prenatal developmental toxicity study; cd1; Oral; Gavage/Intubation; dose end: 14 GD; group: maternal; systemic / in life observation / body weight / body weight gain + systemic / in life observation / mortality / mortality
mouse [5] = conditions: Subchronic oral toxicity in rodents, b6c3f1, Gavage/Intubation, dose end: 13 week, group: systemic, systemic / in life observation / mortality / mortality
rat [6] = conditions: Carcinogenicity; fischer; Oral; Gavage/Intubation; dose end: 103 week; group: systemic; systemic / pathology microscopic / stomach / hyperkeratosis + systemic / pathology microscopic / stomach / hyperplasia + systemic / …
mouse [7] = conditions: Carcinogenicity; b6c3f1; Oral; Gavage/Intubation; dose end: 103 week; group: systemic; systemic / pathology microscopic / stomach / hyperkeratosis + systemic / pathology microscopic / stomach / hyperplasia + systemic / …
mouse [8] = conditions: Subchronic oral toxicity in rodents, b6c3f1, Feed, dose end: 7 week, group: systemic, systemic / in life observation / body weight / body weight
rat [9] = conditions: Combined chronic toxicity/carcinogenicity, fischer, Oral, Feed, dose end: 103 week, group: systemic
mouse [10] = conditions: Carcinogenicity; b6c3f1; Oral; Feed; dose end: 101 week; group: systemic; systemic / in life observation / body weight / body weight + systemic / pathology microscopic / liver / hyperplasia + systemic / pathology …
rat [11] = conditions: Subchronic oral toxicity in rodents, fischer, Feed, dose end: 7 week, group: systemic
rat [12] = conditions: Chronic toxicity; sprague dawley; Oral; Feed; dose end: 104 week; group: systemic; systemic / pathology microscopic / mammary gland / mixed tumor nos + systemic / in life observation / body weight / body weight gain + …
mouse [13] = conditions: Prenatal developmental toxicity study, cd1, Oral, Gavage/Intubation, dose end: 15 GD
mouse [14] = conditions: Multigenerational reproductive toxicity study, cd1, Oral, Feed, dose end: 2 generation
[15] = systemic / in life observation / body weight / body weight
[16] = systemic / in life observation / body weight / body weight + systemic / pathology microscopic / lung / mixed tumor nos + systemic / …
[17] = group: developmental, developmental / developmental malformation / bone / exencephaly + developmental / developmental malformation / trunk / omphalocele + …
[18] = group: maternal, reproductive / reproductive performance / resorptions / resorptions + systemic / in life observation / body weight / dam weight
[19] = group: maternal, reproductive / reproductive performance / resorptions / resorptions + systemic / in life observation / body weight / dam weight + …
[20] = group: offspring, systemic / in life observation / body weight / offspring (pup) weight + developmental / offspring survival late / lactation index / …
[21] = group: parental, systemic / in life observation / body weight / body weight + systemic / in life observation / body weight / body weight gain + systemic / in…
[22] = group: reproductive, reproductive / reproductive performance / fertility / fertility
[23] = group: reproductive, reproductive / reproductive performance / fertility / fertility + reproductive / offspring survival early / litter size / litter size

For `CCCCc1ncc(/C=C(\Cc2cccs2)C(=O)O)n1Cc1ccc(C(=O)O)cc1` [Eprosartan], the LEL (rat [1]) was 1000 mg/kg/day, the LOAEL (rat [1]) was 1000 mg/kg/day and the NEL (rat [1]) was 100 mg/kg/day. For the same compound, the NOAEL (rat [1]) was 100 mg/kg/day.
For `Cc1ccc([N+](=O)[O-])cc1N` [2-Methyl-5-nitroaniline], the LEL (rat [2]) was 2.5 mg/kg/day, the LOAEL (rat [2]) was 2.5 mg/kg/day and the NEL (rat [2]) was < 2.5 mg/kg/day. For the same compound, the NOAEL (rat [2]) was < 2.5 mg/kg/day, the LEL (mouse [3]) was 180 mg/kg/day and the LOAEL (mouse [3]) was 180 mg/kg/day. The NEL (mouse [3]) was < 180 mg/kg/day and the NOAEL (mouse [3]) was < 180 mg/kg/day.
`O=[N+]([O-])c1ccc(O)cc1` [4-Nitrophenol] was tested, and the LEL (mouse [4]) was 400 mg/kg/day, the LOAEL (mouse [4]) was > 400 mg/kg/day and the NEL (mouse [4]) was < 400 mg/kg/day. For the same compound, the NOAEL (mouse [4]) was ≥ 400 mg/kg/day.
With `C=CC(=O)OCC` [Ethyl acrylate] the LEL (mouse [5]) was 25 mg/kg/day, the LOAEL (mouse [5]) was > 25 mg/kg/day and the NEL (mouse [5]) was 12 mg/kg/day. For the same compound, the NOAEL (mouse [5]) was ≥ 25 mg/kg/day, the LEL (rat [6]) was 100 mg/kg/day and the LOAEL (rat [6]) was 100 mg/kg/day. For the same compound, the NEL (rat [6]) was < 100 mg/kg/day, the NOAEL (rat [6]) was < 100 mg/kg/day and the LEL (mouse [7]) was 100 mg/kg/day. The LOAEL (mouse [7]) was 100 mg/kg/day, the NEL (mouse [7]) was < 100 mg/kg/day and the NOAEL (mouse [7]) was < 100 mg/kg/day.
In the case of `Cc1ccc(N)cc1N` [2,4-Diaminotoluene], the LEL (mouse [8]) is reported as 30 mg/kg/day, the LOAEL (mouse [8]) is reported as 45 mg/kg/day and the NEL (mouse [8]) is reported as 15 mg/kg/day. The NOAEL (mouse [8]) was 30 mg/kg/day, the LOAEL (rat [9]; [15]) was 3.95 mg/kg/day and the NOAEL (rat [9]; [15]) was < 3.95 mg/kg/day. The LEL (rat [9]; [16]) was 3.95 mg/kg/day, the NEL (rat [9]; [16]) was < 3.95 mg/kg/day and the LEL (mouse [10]) was 15 mg/kg/day. For the same compound, the LOAEL (mouse [10]) was 15 mg/kg/day, the NEL (mouse [10]) was < 15 mg/kg/day and the NOAEL (mouse [10]) was < 15 mg/kg/day. For the same compound, the LEL (rat [11]; [15]) was 12.5 mg/kg/day, the LOAEL (rat [11]; [15]) was 25 mg/kg/day and the NEL (rat [11]; [15]) was < 12.5 mg/kg/day. For the same compound, the NOAEL (rat [11]; systemic / in life observation / body weight / body weight + systemic / in life observation / mortality / mortality + systemic / pathology …) was 12.5 mg/kg/day.
With `C#C[C@]1(OC(C)=O)CC[C@H]2[C@@H]3CCC4=CC(=O)CC[C@@H]4[C@H]3CC[C@@]21C` [Norethindrone acetate] the LEL (rat [12]) was 0.289 mg/kg/day, the LOAEL (rat [12]) was > 3.3 mg/kg/day and the NEL (rat [12]) was < 0.289 mg/kg/day. For the same compound, the NOAEL (rat [12]) was ≥ 3.3 mg/kg/day.
With `O=[As](O)(O)O` [Arsenic acid] the LEL (mouse [13]; [17]) was 64 mg/kg/day, the LOAEL (mouse [13]; [17]) was 64 mg/kg/day and the NEL (mouse [13]; [17]) was 32 mg/kg/day. The NOAEL (mouse [13]; [17]) was 32 mg/kg/day, the LEL (mouse [13]; [18]) was 32 mg/kg/day and the LOAEL (mouse [13]; [18]) was 32 mg/kg/day. It also gave an NEL (mouse [13]; [19]) of 10 mg/kg/day, an NOAEL (mouse [13]; [19]) of 10 mg/kg/day and an LOAEL (mouse [14]; group: offspring, systemic / in life observation / body weight / offspring (pup) weight) of 25 mg/kg/day. For the same compound, the LEL (mouse [14]; [20]) was 25 mg/kg/day, the NEL (mouse [14]; [20]) was 5 mg/kg/day and the NOAEL (mouse [14]; [20]) was 5 mg/kg/day. It also gave an LEL (mouse [14]; [21]) of 5 mg/kg/day, an LOAEL (mouse [14]; [21]) of 5 mg/kg/day and an NEL (mouse [14]; [21]) of 1 mg/kg/day. For the same compound, the NOAEL (mouse [14]; [21]) was 1 mg/kg/day, the NEL (mouse [14]; [22]) was 5 mg/kg/day and the NOAEL (mouse [14]; [22]) was 5 mg/kg/day. For the same compound, the LEL (mouse [14]; [23]) was 25 mg/kg/day and the LOAEL (mouse [14]; [23]) was 25 mg/kg/day.
